Like-named read-outs stand apart in the source and are kept apart here.
Assays:
[1] = system: P. acnes; assay: MIC and MBC against 16 clinical isolates of P. acnes (broth microdilution, no sebum); assay type: cell-based, Propionibacterium acnes; details: for MBC Range / MIC Range: NB-00X formulations as μg CPC/ml; for MIC50 / MIC90 / MBC: Cutibacterium acnes
Experimental: The nanoemulsions (“NB-00X”) comprised, in an aqueous medium, soybean oil, Tween 20® as a nonionic surfactant, ethanol, cetylpyridinium chloride (CPC) as a cationic surfactant, EDTA, and water, and optionally, a thickening agent for the gel formulation.
Each dilution contained varying concentrations of soybean oil, Tween 20®, ethanol, CPC, and EDTA. Combination products were also evaluated; stock emulsions containing NB-00X gel (3 mg CPC/ml)+2% salicyclic acid or NB-00X gel+0.5% benzoyl peroxide (BPO) were serially diluted two-fold and each concentration was tested against 16 P. acnes isolates. In general, the standard methodology was followed for MIC and MBC determination.
Weighing of drugs and potency calculations were done as prescribed by Clinical and Laboratory Standards Institute (1). Dimethyl sulfoxide (DMSO) was used to prepare stock solutions of the water-insoluble compound tetracycline at 100× concentrations. […] Stock solutions of chlorhexidine and NB-00X were prepared at a 4× concentration in DI water.
To prepare intermediate concentrations, 100× stock solutions were serially diluted 1:1 using DMSO or DI water. Final concentrations were made by 1:50 or 1:1 dilutions in Wilkin Chalgren media (1) to give 2× of the test concentrations, with final DMSO concentrations at 1%. 50 μl of these drug concentrations were transferred to 96-well plates using multi-channel pipettes.
P. acnes strains grown on sheep blood agar for 24-48 hrs at 35° C. were used as the sources of inocula for susceptibility studies as per Clinical and Laboratory Standards Institute. […] Within 15 minutes, each well (except the negative growth controls) of the microtiter tray containing the serial dilutions of test compounds received 50 μl of inoculum, resulting into a log2 dilution of both drug and bug in each well. Verification of the colony-forming units in the inoculum was performed by diluting the adjusted inoculum preparation to […] and plating 100 μl on blood agar plate.
Microtiter and blood agar plates were incubated at 35-37° C. for 48 h in a 7.0 L AnaeroPack Jar (Mitsubishi gas chemical; No. 50-70) fitted with an anaerobic gas generating system (Misubishi, No. 10-01) and a dry anaerobic indicator strip (BBL, Becton, Dickinson & Co. #271051). MICs were read visually using a 96-well plate reader fitted with a magnifying mirror (Biodesign of New York). Because of the opacity of benzoyl peroxide, 20 μl of Cell Titer Blue (alamar blue from Promega G8080) was added after 48 hrs; the plates were incubated for an additional hour prior to reading. Colony-forming units were counted after 72 h of incubation to ensure that the initial inocula were between 2-5×10^6 cfu/ml.
The minimal bactericidal concentrations (MBC) for P. acnes were determined by plating 10 μl from the well determined to be the MIC plus 4 wells above the MIC on blood-supplemented Mueller-Hinton agar plate. Inoculated petri plates were incubated for 72 h at 35° C. under anaerobic conditions.

[2] = system: P. acnes; assay: MIC and MBC against 16 P. acnes isolates in the presence of 50% artificial sebum; assay type: cell-based, Propionibacterium acnes; details: for increase of MBC90/MBCs in the presence of sebum / increase of MIC90 in the presence of sebum / impact of sebum on microbiological activity (MIC90/MBC90): 50% sebum versus no sebum; for MIC90: Cutibacterium acnes, 16 P. acnes isolates, 50% artificial sebum; for impact of sebum on microbiological activity (MIC90/MBC90): up to the concentrations tested
Experimental: The nanoemulsions (“NB-002”) comprised, in an aqueous medium, soybean oil, Tween 20® as a nonionic surfactant, ethanol, cetylpyridinium chloride (CPC) as a cationic surfactant, EDTA, and water. Artificial sebum was prepared by adding the entire ingredients given in the Table 6 and heating at 60° C. in a water bath, with intermittent stirring until all solids melted resulting in to a clear yellow liquid ([…] et al., “Diffusion properties of model compounds in artificial sebum. Int. J. Pharm., 345:88-94 (2007)). To prepare intermediate concentrations, 100× stock solutions were serially diluted 1:1 using DMSO or DI water. Final concentrations were made by 1:50 dilutions in Wilkin Chalgren media to give 2× of the final test concentrations, with final DMSO concentrations at 1%. 50 μl of these drug concentrations were transferred to 96-well plates using multi-channel pipettes. Sebum was prewarmed to 50° C. and each well received 45 μl of sebum. After ten minutes at 35° C., five microliters of a P. acnes culture at 10^8 colony-forming units/ml was added to each well.

[3] = 16 P. acnes isolates, no sebum, read-out: MBC50
[4] = 16 P. acnes isolates, no sebum, read-out: MBC90
[5] = 16 P. acnes isolates, no sebum, listed as chlorhexidine

| MIC Range ([1]; 16 P. acnes isolates, no sebum) | MIC50 ([1]; 16 P. acnes isolates, no sebum) [µg/mL] | MIC90 ([1]; 16 P. acnes isolates, no sebum) [µg/mL] | increase of MIC90 in the presence of sebum [2] | MIC90 [2] [µg/mL] | MIC Range [1, 5] [µg/mL] | impact of sebum on microbiological activity (MIC90/MBC90) [2] | SMILES | MBC Range ([1]; 16 P. acnes isolates, no sebum) | MBC [1, 3] [µg/mL] | MBC [1, 4] [µg/mL] | increase of MBC90/MBCs in the presence of sebum [2] | MBC Range [1, 5] [µg/mL] | MBC90 ([1]; 16 P. acnes isolates, no sebum) [µg/mL] | isolates resistant ([1]; share of the P. acnes isolates resistant to the drug) [%] |
| --- | --- | --- | --- | --- | --- | --- | --- | --- | --- | --- | --- | --- | --- | --- |
| ≦50-100 μg/ml | 50 | 50 | eight-fold | 400 |  |  | O=C(OOC(=O)c1ccccc1)c1ccccc1 [Benzoyl peroxide, benzoyl peroxide] | 100 to 400 µg/mL | 200 | 200 | eight-fold |  |  |  |
| ≦10 μg/ml | ≤ 10 | ≤ 10 | at least eight-fold | 78 | ≤ 10 |  | [H]/N=C(\N/C(=N/[H])NCCCCCCNC(=N)NC(=N)Nc1ccc(Cl)cc1)Nc1ccc(Cl)cc1 [Chlorhexidine, chlorhexidine] | ≦10 μg/ml | ≤ 10 | ≤ 10 | at least 125 fold | ≤ 10 |  |  |
|  | 2 | > 64 |  | > 64 |  |  | CCC[C@@H]1C[C@@H](C(=O)N[C@@H]([C@H]2O[C@H](SC)[C@H](O)[C@@H](O)[C@H]2O)[C@H](C)Cl)N(C)C1 [Clindamycin, clindamycin] |  | > 64 | > 64 |  |  |  |  |
|  | 2 |  |  |  |  | did not impact | CC[C@H]1OC(=O)[C@H](C)[C@@H](O[C@H]2C[C@@](C)(OC)[C@@H](O)[C@H](C)O2)[C@H](C)[C@@H](O[C@@H]2O[C@H](C)C[C@H](N(C)C)[C@H]2O)[C@](C)(O)C[C@@H](C)C(=O)[C@H](C)[C@@H](O)[C@]1(C)O [Erythromycin, erythromycin] |  | > 64 |  |  |  |  |  |
| 500 to 1000 µg/mL | 1000 | 1000 |  | 1000 |  | not significantly impacted | O=C(O)c1ccccc1O [Salicylic acid] |  | 2000 | 2000 |  |  | 2000 |  |

| SMILES | MIC Range ([1]; 16 P. acnes isolates, no sebum) | MIC50 ([1]; 16 P. acnes isolates, no sebum) [µg/mL] | MIC90 ([1]; 16 P. acnes isolates, no sebum) [µg/mL] | increase of MIC90 in the presence of sebum [2] | MIC90 [2] [µg/mL] | MIC Range [1, 5] [µg/mL] | impact of sebum on microbiological activity (MIC90/MBC90) [2] | MBC Range ([1]; 16 P. acnes isolates, no sebum) | MBC [1, 3] [µg/mL] | MBC [1, 4] [µg/mL] | increase of MBC90/MBCs in the presence of sebum [2] | MBC Range [1, 5] [µg/mL] | MBC90 ([1]; 16 P. acnes isolates, no sebum) [µg/mL] | isolates resistant ([1]; share of the P. acnes isolates resistant to the drug) [%] |
| --- | --- | --- | --- | --- | --- | --- | --- | --- | --- | --- | --- | --- | --- | --- |
| CN(C)[C@@H]1C(O)=C(C(N)=O)C(=O)[C@@]2(O)C(O)=C3C(=O)c4c(O)cccc4[C@@](C)(O)[C@H]3C[C@@H]12 [Tetracycline, tetracycline] |  | 1 | > 32 |  | 32 |  |  |  | > 16 | > 32 |  |  |  | 44 |

— US20100226983A1, “Compositions for treatment and prevention of acne, methods of making the compositions, and methods of use thereof” (NanoBio Corporation, priority 2009, published 2010)
